Reference: PubChem BioAssay AID330 (DTP/NCI, 2004)
Several values for one entry are separate records, joined by “and”; a condition that tells them apart may be missing. Equal values may be shown once. Inconclusive results and toxic doses are left out. The calls were made as follows: active = survival T/C of 150% or more; inactive = T/C below 125% in these data.

Tested on: P388 leukemia ip, CD2F1 mice, survival T/C
Assay: NCI In Vivo Anticancer Drug Screen. Data for tumor model P388 Leukemia (intraperitoneal) in CD2F1 (CDF1) mice
Conditions: endpoint: median survival time, higher = longer survival
Outline: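 Mice carrying the transplanted tumor received test compound or vehicle. Survival was recorded in each group, and the value is the treated-group measurement divided by that of the vehicle-treated control group.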

[1] = dose: 100.0 mg/kg/injection, schedule: Q01DX005 (ip), vehicle: saline with Tween-80
[2] = dose: 50.0 mg/kg/injection, schedule: Q01DX005 (ip), vehicle: Klucel (hydroxypropylcellulose) (HPC)
[3] = dose: 100.0 mg/kg/injection, schedule: Q01DX005 (ip), vehicle: Klucel (hydroxypropylcellulose) (HPC)
[4] = dose: 200.0 mg/kg/injection, schedule: Q01DX005 (ip), vehicle: Klucel (hydroxypropylcellulose) (HPC)
[5] = dose: 25.0 mg/kg/injection, schedule: Q01DX009 (ip), vehicle: saline with Tween-80
[6] = dose: 50.0 mg/kg/injection, schedule: Q01DX009 (ip), vehicle: saline with Tween-80
[7] = dose: 100.0 mg/kg/injection, schedule: Q01DX009 (ip), vehicle: saline with Tween-80
[8] = dose: 200.0 mg/kg/injection, schedule: Q01DX009 (ip), vehicle: saline with Tween-80
[9] = dose: 6.25 mg/kg/injection, schedule: Q01DX005 (ip), vehicle: Klucel (hydroxypropylcellulose) (HPC)
[10] = dose: 12.5 mg/kg/injection, schedule: Q01DX005 (ip), vehicle: Klucel (hydroxypropylcellulose) (HPC)
[11] = dose: 6.25 mg/kg/injection, schedule: Q01DX009 (ip), vehicle: saline with Tween-80

Measured: T/C

Cn1cnc2c(=O)[nH]c(N)nc21
inactive: dose: 50.0 mg/kg/injection, schedule: Q01DX005 (ip), vehicle: saline with Tween-80 102 % of control | [1] 107 % of control | dose: 200.0 mg/kg/injection, schedule: Q01DX005 (ip), vehicle: saline with Tween-80 107 % of control

Nc1ccc(-c2ccc(N=C(/C=N/O)NO)cc2)cc1
inactive: [2] 102 % of control | [3] 100 % of control | [4] 94 % of control

N#Cc1ccc(OCCCCCOc2ccc(C#N)cc2)cc1
inactive: [5] 108 % of control | [6] 100 % of control | [7] 97 % of control | [8] 99 % of control

C=CCn1c(COc2c(I)cc(I)c3cccnc23)n[nH]c1=S
inactive: [9] 100 % of control and 96 % of control | [10] 108 % of control and 115 % of control | dose: 25.0 mg/kg/injection, schedule: Q01DX005 (ip), vehicle: Klucel (hydroxypropylcellulose) (HPC) 106 % of control | [2] 114 % of control

O=C1C2(CC3C=CC2C3)C(=O)C12CC1C=CC2C1 (configuration not stated)
inactive: [6] 102 % of control | [7] 100 % of control | [8] 103 % of control

COc1ccc(/C=C2\N=C(c3ccccc3)OC2=O)c(OCc2ccccc2)c1
inactive: dose: 12.5 mg/kg/injection, schedule: Q01DX009 (ip), vehicle: other 88 % of control | dose: 25.0 mg/kg/injection, schedule: Q01DX009 (ip), vehicle: other 89 % of control | dose: 100.0 mg/kg/injection, schedule: Q01DX009 (ip), vehicle: other 88 % of control | dose: 200.0 mg/kg/injection, schedule: Q01DX009 (ip), vehicle: other 94 % of control

NNC(=S)N/N=C/c1ccccn1
inactive: dose: 0.78 mg/kg/injection, schedule: Q01DX009 (ip), vehicle: saline 99 % of control | dose: 1.56 mg/kg/injection, schedule: Q01DX009 (ip), vehicle: saline 102 % of control and 117 % of control | dose: 1.56 mg/kg/injection, schedule: Q01DX009 (ip), vehicle: suspension in saline 107 % of control | dose: 3.12 mg/kg/injection, schedule: Q01DX009 (ip), vehicle: suspension in saline 109 % of control | [11] 100 % of control | dose: 6.25 mg/kg/injection, schedule: Q01DX009 (ip), vehicle: saline 110 % of control | dose: 6.25 mg/kg/injection, schedule: Q01DX009 (ip), vehicle: suspension in saline 111 % of control | dose: 16.5 mg/kg/injection, schedule: Q01DX009 (ip), vehicle: saline sonified 122 % of control
active: dose: 12.5 mg/kg/injection, schedule: Q01DX009 (ip), vehicle: saline 150 % of control | [5] 150 % of control | dose: 25.0 mg/kg/injection, schedule: Q01DX009 (ip), vehicle: saline 154 % of control and 170 % of control

CC1=C(CCCCCCCCCCCCCCC(C)O)C(=O)OC1=O (configuration not stated)
inactive: dose: 1.56 mg/kg/injection, schedule: Q01DX005 (ip), vehicle: Klucel (hydroxypropylcellulose) (HPC) 108 % of control | dose: 3.12 mg/kg/injection, schedule: Q01DX005 (ip), vehicle: Klucel (hydroxypropylcellulose) (HPC) 108 % of control | [9] 99 % of control | [10] 99 % of control | [2] 89 % of control | [3] 92 % of control | [4] 101 % of control | dose: 400.0 mg/kg/injection, schedule: Q01DX005 (ip), vehicle: Klucel (hydroxypropylcellulose) (HPC) 87 % of control

CC(=S)N(c1ccccc1)c1ccccc1
inactive: dose: 60.0 mg/kg/injection, schedule: Q01DX005 (ip), vehicle: Klucel (hydroxypropylcellulose) (HPC) 101 % of control | dose: 120.0 mg/kg/injection, schedule: Q01DX005 (ip), vehicle: Klucel (hydroxypropylcellulose) (HPC) 96 % of control | dose: 240.0 mg/kg/injection, schedule: Q01DX005 (ip), vehicle: Klucel (hydroxypropylcellulose) (HPC) 93 % of control

C/C(=N\NC(=S)N(C)C)c1ccccn1
inactive: [11] 100 % of control

COc1cc2c[n+](C)c3c(c2cc1OC)Cc1cc2c(cc1-3)OCO2
active: dose: 25.0 mg/kg/injection, schedule: Q01DX005 (ip), vehicle: saline with Tween-80 151 % of control | dose: 50.0 mg/kg/injection, schedule: Q01DX005 (ip), vehicle: saline 174 % of control | [1] 168 % of control
